Tests used:
[1] = Stability study: total related substances of crystalline form lots on storage
[2] = Stability study: solvents (water) content of crystalline form lots on storage
[3] = 2.5 hydrate lots stored at 5° C.
[4] = accelerated conditions 30° C., 0 months
[5] = accelerated conditions 30° C., 1 month
[6] = accelerated conditions 30° C., 2 months
[7] = accelerated conditions 30° C., 3 months
[8] = accelerated conditions 30° C., 6 months
[9] = stored at 5° C., 0 months, lots A-C water and ethanol, lot D water only
[10] = accelerated conditions 25° C., 60% relative humidity
[11] = heptahydrate lot stored at 5° C.
[12] = heptahydrate lot, 25° C./60% relative humidity and room temperature/uncontrolled humidity

## Nc1nc2[nH]cc(CCc3ccc(C(=O)N[C@@H](CCC(=O)O)C(=O)O)cc3)c2c(=O)[nH]1 [Lot C, pemetrexed disodium]
[1]; [3]
  change in the percent total related substances over time: did increase somewhat over time
[1]; accelerated conditions 30° C.
  change in the percent total related substances over time: did change significantly over time
[1]; [4]
  Total Related Substances Results: 0.38% of Total
[1]; [5]
  Total Related Substances Results: 0.6% of Total
[1]; [6]
  Total Related Substances Results: 0.76% of Total
[1]; [7]
  Total Related Substances Results: 0.79% of Total
[1]; [8]
  Total Related Substances Results: 1.33% of Total
[1]; stored at 5° C., 0 months
  Total Related Substances Results: 0.38% of Total
[1]; stored at 5° C., 3 months
  Total Related Substances Results: 0.79% of Total
[1]; stored at 5° C., 6 months
  Total Related Substances Results: 0.79% of Total
[1]; stored at 5° C., 12 months
  Total Related Substances Results: 0.51% of Total
[1]; stored at 5° C., 18 months
  Total Related Substances Results: 0.43% of Total
[1]; stored at 5° C., 24 months
  Total Related Substances Results: 0.44% of Total
[2]; [4]
  Solvents Results: 8.8% of Total
[2]; [5]
  Solvents Results: 20.6% of Total
[2]; [6]
  Solvents Results: 19.3% of Total
[2]; [7]
  Solvents Results: 17.2% of Total
[2]; [8]
  Solvents Results: 8.9% of Total
[2]; [9]
  Solvents Results: 8.8% of Total
[2]; stored at 5° C., 3 months
  Solvents Results: 16.7% of Total
[2]; stored at 5° C., 6 months
  Solvents Results: 8.8% of Total
[2]; stored at 5° C., 12 months
  Solvents Results: 21.0% of Total
[2]; stored at 5° C., 18 months
  Solvents Results: 20.8% of Total
[2]; stored at 5° C., 24 months
  Solvents Results: 20.4% of Total

## Nc1nc2[nH]cc(CCc3ccc(C(=O)N[C@@H](CCC(=O)O)C(=O)O)cc3)c2c(=O)[nH]1 [Lot D, pemetrexed disodium]
[1]; [3]
  change in the percent total related substances over time: did not change significantly over time
[1]; [10]
  change in the percent total related substances over time: did not increase somewhat over time
[1]; accelerated conditions 25° C., 60% relative humidity, 0 months
  Total Related Substances Results: 0.31% of Total
[1]; accelerated conditions 25° C., 60% relative humidity, 1 month
  Total Related Substances Results: 0.31% of Total
[1]; accelerated conditions 25° C., 60% relative humidity, 2 months
  Total Related Substances Results: 0.45% of Total
[1]; accelerated conditions 25° C., 60% relative humidity, 3 months
  Total Related Substances Results: 0.40% of Total
[1]; accelerated conditions 25° C., 60% relative humidity, 6 months
  Total Related Substances Results: 0.32% of Total
[1]; stored at 5° C., 0 months
  Total Related Substances Results: 0.31% of Total
[1]; stored at 5° C., 3 months
  Total Related Substances Results: 0.35% of Total
[1]; stored at 5° C., 6 months
  Total Related Substances Results: 0.33% of Total
[1]; stored at 5° C., 9 months
  Total Related Substances Results: 0.42% of Total
[1]; stored at 5° C., 12 months
  Total Related Substances Results: 0.24% of Total
[2]; [10]
  change in water content over time: shows an increase in water content to the heptahydrate form
[2]; accelerated conditions 25° C., 60% relative humidity, 0 months, water only
  Solvents Results: 8.5% of Total
[2]; accelerated conditions 25° C., 60% relative humidity, 1 month, water only
  Solvents Results: 14.0% of Total
[2]; accelerated conditions 25° C., 60% relative humidity, 2 months, water only
  Solvents Results: 20.5% of Total
[2]; accelerated conditions 25° C., 60% relative humidity, 3 months, water only
  Solvents Results: 20.8% of Total
[2]; accelerated conditions 25° C., 60% relative humidity, 6 months, water only
  Solvents Results: 21.2% of Total
[2]; [9]
  Solvents Results: 8.5% of Total
[2]; stored at 5° C., 3 months
  Solvents Results: 14.0% of Total
[2]; stored at 5° C., 6 months
  Solvents Results: 18.2% of Total
[2]; stored at 5° C., 9 months
  Solvents Results: 21.1% of Total
[2]; stored at 5° C., 12 months
  Solvents Results: 21.7% of Total

## Nc1nc2[nH]cc(CCc3ccc(C(=O)N[C@@H](CCC(=O)[O-])C(=O)[O-])cc3)c2c(=O)[nH]1.[Na+].[Na+] [Heptahydrate Lot, disodium N-[4-[2-(2-amino-4,7-dihydro-4-oxo-3H-pyrrolo[2,3-d]-pyrimidin-5-yl)ethyl]benzoyl]-L-glutamic acid salt]
[1]; 5 C., 0 mo.
  Total Related Substances Results: 0.41%
[1]; 5 C., 0.5 mo.
  Total Related Substances Results: 0.42%
[1]; 5 C., 1 mo.
  Total Related Substances Results: 0.43%
[1]; 5 C., 2 mo.
  Total Related Substances Results: 0.45%
[1]; 5 C., 3 mo.
  Total Related Substances Results: 0.42%
[1]; 5 C., 6 mo.
  Total Related Substances Results: 0.42%
[1]; 5 C., 9 mo.
  Total Related Substances Results: 0.40%
[1]; 5 C., 12 mo.
  Total Related Substances Results: 0.42%
[1]; 25 C./60% RH, 0 mo.
  Total Related Substances Results: 0.41%
[1]; 25 C./60% RH, 0.25 mo.
  Total Related Substances Results: 0.40%
[1]; 25 C./60% RH, 0.5 mo.
  Total Related Substances Results: 0.44%
[1]; 25 C./60% RH, 0.75 mo.
  Total Related Substances Results: 0.39%
[1]; 25 C./60% RH, 1 mo.
  Total Related Substances Results: 0.43%
[1]; 25 C./60% RH, 3 mo.
  Total Related Substances Results: 0.42%
[1]; 25 C./60% RH, 6 mo.
  Total Related Substances Results: 0.42%
[1]; 25 C./60% RH, 12 mo.
  Total Related Substances Results: 0.39%
[1]; RT/uncontrolled, 0 mo.
  Total Related Substances Results: 0.41%
[1]; RT/uncontrolled, 0.25 mo.
  Total Related Substances Results: 0.40%
[1]; RT/uncontrolled, 0.5 mo.
  Total Related Substances Results: 0.43%
[1]; RT/uncontrolled, 0.75 mo.
  Total Related Substances Results: 0.41%
[1]; RT/uncontrolled, 1 mo.
  Total Related Substances Results: 0.43%
[1]; RT/uncontrolled, 2 mo.
  Total Related Substances Results: 0.44%
[1]; RT/uncontrolled, 3 mo.
  Total Related Substances Results: 0.42%
[1]; [11]
  change in the percent total related substances over time: did not change significantly over time
[1]; heptahydrate lot stored at accelerated conditions
  change in the percent total related substances over time: did not change significantly over time
[2]; 5° C., time 0
  Solvents (Water) Results: 21.0%
[2]; 5° C., time 0.5
  Solvents (Water) Results: 21.0%
[2]; 5° C., time 1
  Solvents (Water) Results: 20.6%
[2]; 5° C., time 2
  Solvents (Water) Results: 21.1%
[2]; 5° C., time 3
  Solvents (Water) Results: 21.3%
[2]; 5° C., time 6
  Solvents (Water) Results: 21.1%
[2]; 5° C., time 9
  Solvents (Water) Results: 21.1%
[2]; 5° C., time 12
  Solvents (Water) Results: 21.9%
[2]; 25° C./60% RH, time 0
  Solvents (Water) Results: 21.0%
[2]; 25° C./60% RH, time 0.25
  Solvents (Water) Results: 21.1%
[2]; 25° C./60% RH, time 0.5
  Solvents (Water) Results: 21.1%
[2]; 25° C./60% RH, time 0.75
  Solvents (Water) Results: 20.1%
[2]; 25° C./60% RH, time 1
  Solvents (Water) Results: 20.1%
[2]; 25° C./60% RH, time 3
  Solvents (Water) Results: 20.7%
[2]; 25° C./60% RH, time 6
  Solvents (Water) Results: 21.3%
[2]; 25° C./60% RH, time 12
  Solvents (Water) Results: 21.7%
[2]; RT/uncontrolled RH, time 0
  Solvents (Water) Results: 21.0%
[2]; RT/uncontrolled RH, time 0.25
  Solvents (Water) Results: 21.3%
[2]; RT/uncontrolled RH, time 0.5
  Solvents (Water) Results: 20.8%
[2]; RT/uncontrolled RH, time 0.75
  Solvents (Water) Results: 20.6%
[2]; RT/uncontrolled RH, time 1
  Solvents (Water) Results: 20.6%
[2]; RT/uncontrolled RH, time 2
  Solvents (Water) Results: 21.1%
[2]; RT/uncontrolled RH, time 3
  Solvents (Water) Results: 21.1%
[2]; [11]
  change in water content over time: does not change significantly over time
  water content: approximately 21%
[2]; [12]
  change in water content over time: does not change significantly over time
  water content: approximately 21%

## Nc1nc2[nH]cc(CCc3ccc(C(=O)N[C@@H](CCC(=O)O)C(=O)O)cc3)c2c(=O)[nH]1 [Lot A, pemetrexed disodium]
[1]; [3]
  change in the percent total related substances over time: did not change significantly over time
[1]; accelerated conditions 30° C.
  change in the percent total related substances over time: did change significantly over time
[1]; [4]
  Total Related Substances Results: 0.24% of Total
[1]; [5]
  Total Related Substances Results: 0.35% of Total
[1]; [6]
  Total Related Substances Results: 0.41% of Total
[1]; [7]
  Total Related Substances Results: 0.6% of Total
[1]; [8]
  Total Related Substances Results: 1.1% of Total
[1]; stored at 5° C., 0 months
  Total Related Substances Results: 0.24% of Total
[1]; stored at 5° C., 3 months
  Total Related Substances Results: 0.26% of Total
[1]; stored at 5° C., 6 months
  Total Related Substances Results: 0.27% of Total
[1]; stored at 5° C., 12 months
  Total Related Substances Results: 0.28% of Total
[1]; stored at 5° C., 18 months
  Total Related Substances Results: 0.4% of Total
[1]; stored at 5° C., 24 months
  Total Related Substances Results: 0.4% of Total
[2]; [4]
  Solvents Results: 10.2% of Total
[2]; [5]
  Solvents Results: 10.9% of Total
[2]; [6]
  Solvents Results: 10.6% of Total
[2]; [7]
  Solvents Results: 10.7% of Total
[2]; [8]
  Solvents Results: 9.3% of Total
[2]; [9]
  Solvents Results: 10.2% of Total
[2]; stored at 5° C., 3 months
  Solvents Results: 22.0% of Total
[2]; stored at 5° C., 6 months
  Solvents Results: 21.1% of Total
[2]; stored at 5° C., 12 months
  Solvents Results: 21.5% of Total
[2]; stored at 5° C., 18 months
  Solvents Results: 22.3% of Total
[2]; stored at 5° C., 24 months
  Solvents Results: 21.1% of Total

## Nc1nc2[nH]cc(CCc3ccc(C(=O)N[C@@H](CCC(=O)O)C(=O)O)cc3)c2c(=O)[nH]1 [Lot B, pemetrexed disodium]
[1]; [3]
  change in the percent total related substances over time: did not change significantly over time
[1]; accelerated conditions 30° C.
  change in the percent total related substances over time: did change significantly over time
[1]; [4]
  Total Related Substances Results: 0.4% of Total
[1]; [5]
  Total Related Substances Results: 0.4% of Total
[1]; [6]
  Total Related Substances Results: 0.7% of Total
[1]; [7]
  Total Related Substances Results: 0.6% of Total
[1]; [8]
  Total Related Substances Results: 1.2% of Total
[1]; stored at 5° C., 0 months
  Total Related Substances Results: 0.4% of Total
[1]; stored at 5° C., 3 months
  Total Related Substances Results: 0.3% of Total
[1]; stored at 5° C., 6 months
  Total Related Substances Results: 0.5% of Total
[1]; stored at 5° C., 12 months
  Total Related Substances Results: 0.4% of Total
[2]; [4]
  Solvents Results: 11.0% of Total
[2]; [5]
  Solvents Results: 15.5% of Total
[2]; [6]
  Solvents Results: 12.9% of Total
[2]; [7]
  Solvents Results: 11.5% of Total
[2]; [8]
  Solvents Results: 11.2% of Total
[2]; [9]
  Solvents Results: 11.0% of Total
[2]; stored at 5° C., 3 months
  Solvents Results: 21.0% of Total
[2]; stored at 5° C., 6 months
  Solvents Results: 21.1% of Total
[2]; stored at 5° C., 12 months
  Solvents Results: 21.0% of Total
